Test results published in patent publication US20260042764A1, “COMPOSITIONS AND METHODS FOR INHIBITION OF KRAS” (TheRas, Inc., priority 2022, published 2026).
pIC50: −log10 of the molar value.

How the values were obtained:
[1] = biological target: T1, Avi-KRAS G12D (1-169) GppNHp/RAF1 RBD-3xFLAG (52-151) (Homo sapiens, UniProt P01116, G12D); test: Raf1-KRAS G12D-GppNHP disruption HTRF assay (Biological Example 1); assay type: binding
T1 construct: Avi-KRAS G12D (1-169)
How it was run: (§1)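 Compound disruption of KRAS-GppNHp/RAF1 RBD binding read by HTRF after two sequential 1 h room-temperature incubations (protein mix, then detection reagents), shaken at 700 rpm. Buffer Tris pH 7.5 with MgCl2, BSA, Tween and 10% DMSO; results given as percent activity relative to DMSO (100%).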

[2] = biological target: T2, Avi-KRAS G12V (1-169) GppNHp/RAF1 RBD-3xFLAG (52-151) (Homo sapiens, UniProt P01116, G12V); test: Raf1-KRAS G12V-GppNHP disruption HTRF assay (Biological Example 1); assay type: binding
T2 construct: Avi-KRAS G12V (1-169)
How it was run: as §1

[3] = biological target: T3, Avi-KRAS G12V (2-169) GTP/RAF1 RBD-3xFLAG (51-131) (Homo sapiens, UniProt P01116, G12V); test: Raf1-KRAS G12V-GTP disruption HTRF assay (Biological Example 3); assay type: binding; details: KRAS G12V, GTP-loaded
T3 construct: Avi-KRAS G12V (2-169)
How it was run: (§2)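 Each KRAS-GTP/RAF1 RBD complex at 50 nM, with 75 nM 3xFLAG-RAF1 RBD (51-131)-Avi, in 50 mM Tris pH 7.5, 100 mM NaCl, 5 mM MgCl2, 0.1% BSA, 0.01% Tween 20, 10% DMSO. Compounds titrated from 30 μM, 10-point 3x series; 1 h at room temperature with shaking. HTRF read, activity as percent of DMSO.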

[4] = biological target: T4, Avi-KRAS G12R (1-169) GppNHp/RAF1 RBD-3xFLAG (52-151) (Homo sapiens, UniProt P01116, G12R); test: Raf1-KRAS G12R-GppNHP disruption HTRF assay (Biological Example 1); assay type: binding
T4 construct: Avi-KRAS G12R (1-169)
How it was run: as §1

SW620 cells (KRAS G12V) = test: Cell-based pERK HTRF assay in SW620 cell (Biological Example 4)
How it was run: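 SW620 (KRAS G12V) cells seeded at 3×10^4/well in RPMI, 10% FBS, then treated next day for 4 h with a 9-point half-log series from 1 μM top (0.25% DMSO). Lysates analyzed for pERK by HTRF (Eu cryptate/d2 antibodies, 4–24 h at room temperature), excitation 320 nm, emission 615 nm.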

[5] = biological target: T5, Avi-KRAS WT (1-169) GppNHp/RAF1 RBD-3xFLAG (52-151) (Homo sapiens, UniProt P01116); test: Raf1-KRAS WT-GppNHP disruption HTRF assay (Biological Example 1); assay type: binding
T5 construct: Avi-KRAS WT (1-169)
How it was run: as §1

[6] = biological target: T6, Avi-KRAS WT (2-169) GTP/RAF1 RBD-3xFLAG (51-131) (Homo sapiens, UniProt P01116); test: Raf1-KRAS WT-GTP disruption HTRF assay (Biological Example 3); assay type: binding; details: KRAS WT, GTP-loaded
T6 construct: Avi-KRAS WT (2-169)
How it was run: as §2

[7] = Homo sapiens, SW-620, SW620 (KRAS G12V) cells
[8] = SW620 (KRAS G12V) cells, pERK HTRF
[9] = KRAS G12D, GppNHp-loaded, class symbols
[10] = KRAS G12V, GppNHp-loaded, class symbols
[11] = KRAS G12R, GppNHp-loaded, class symbols
[12] = Homo sapiens, SW-620, SW620 (KRAS G12V) cells, pERK HTRF, class symbols
[13] = KRAS WT, GppNHp-loaded, class symbols
[14] = Homo sapiens, SW-620, SW620 (KRAS G12V) cells, pERK HTRF
[15] = KRAS G12D, GppNHp-loaded, Table 11
[16] = KRAS G12V, GppNHp-loaded, Table 11
[17] = KRAS G12R, GppNHp-loaded, Table 11
[18] = KRAS WT, GppNHp-loaded, Table 11

T2 sequence (P01116 1-169 isoform P01116-2 G12V): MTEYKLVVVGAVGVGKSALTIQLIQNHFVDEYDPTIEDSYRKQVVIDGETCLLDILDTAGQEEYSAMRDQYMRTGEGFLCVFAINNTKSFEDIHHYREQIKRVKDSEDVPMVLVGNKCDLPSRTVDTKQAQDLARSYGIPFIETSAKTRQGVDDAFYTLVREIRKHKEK
T1 sequence (P01116 1-169 isoform P01116-2 G12D): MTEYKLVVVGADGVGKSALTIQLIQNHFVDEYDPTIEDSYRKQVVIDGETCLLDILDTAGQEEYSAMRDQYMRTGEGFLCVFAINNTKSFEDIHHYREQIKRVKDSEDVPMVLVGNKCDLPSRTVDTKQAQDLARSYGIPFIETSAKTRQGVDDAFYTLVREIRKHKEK
T4 sequence (P01116 1-169 isoform P01116-2 G12R): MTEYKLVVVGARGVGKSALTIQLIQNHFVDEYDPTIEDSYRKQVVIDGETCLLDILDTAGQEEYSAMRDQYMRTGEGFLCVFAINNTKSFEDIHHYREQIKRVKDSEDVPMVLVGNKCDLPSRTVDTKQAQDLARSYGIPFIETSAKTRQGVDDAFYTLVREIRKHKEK
T3 sequence (P01116 2-169 isoform P01116-2 G12V): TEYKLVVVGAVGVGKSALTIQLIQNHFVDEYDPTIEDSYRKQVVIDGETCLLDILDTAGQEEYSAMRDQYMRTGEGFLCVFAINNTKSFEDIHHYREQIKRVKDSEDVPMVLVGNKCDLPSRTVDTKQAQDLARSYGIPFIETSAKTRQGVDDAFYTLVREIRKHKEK
T6 sequence (P01116 2-169 isoform P01116-2): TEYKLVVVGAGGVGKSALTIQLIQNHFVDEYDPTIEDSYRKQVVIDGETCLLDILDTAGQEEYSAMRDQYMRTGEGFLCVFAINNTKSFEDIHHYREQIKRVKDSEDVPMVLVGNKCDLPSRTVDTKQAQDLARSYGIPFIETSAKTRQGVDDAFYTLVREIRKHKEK
T5 sequence (P01116 1-169 isoform P01116-2): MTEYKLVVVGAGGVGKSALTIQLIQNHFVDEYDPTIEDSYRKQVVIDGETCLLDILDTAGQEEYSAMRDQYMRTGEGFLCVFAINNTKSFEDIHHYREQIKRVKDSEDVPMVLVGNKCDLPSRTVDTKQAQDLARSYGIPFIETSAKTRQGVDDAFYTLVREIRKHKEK

| SMILES | pIC50 ([1]; KRAS G12D-GppNHp/RAF1 RBD HTRF) | pIC50 ([2]; KRAS G12V-GppNHp/RAF1 RBD HTRF) | pIC50 [3] | pIC50 ([4]; KRAS G12R-GppNHp/RAF1 RBD HTRF) | pIC50 (SW620 cells (KRAS G12V); [7]) | pIC50 (SW620 cells (KRAS G12V); [8]) | pIC50 ([5]; KRAS WT-GppNHp/RAF1 RBD HTRF) | pIC50 [6] | pIC50 [1, 9] | pIC50 [2, 10] | pIC50 [4, 11] | pIC50 (SW620 cells (KRAS G12V); [12]) | pIC50 [5, 13] | pIC50 (SW620 cells (KRAS G12V); [14]) | pIC50 [1, 15] | pIC50 [2, 16] | pIC50 [4, 17] | pIC50 [5, 18] |
| --- | --- | --- | --- | --- | --- | --- | --- | --- | --- | --- | --- | --- | --- | --- | --- | --- | --- | --- |
| CCC(=O)N1CC[C@@H](N(C)c2nc(OC[C@@]34CCCN3C[C@H](F)C4)nc3c(F)c(-c4ccc(F)c5sc(N)c(C#N)c45)c(C(F)(F)F)cc23)[C@H]1C (atropisomer, axis not shown) [Compound 335] | > 7.00 | > 7.00 | 6.00 to 7.00 | > 7.00 | > 7.00 | > 7.00 | > 7.00 | 6.00 to 7.00 | – | – | – | – | – | – | – | – | – | – |
| CCN(c1nc(OC[C@@]23CCCN2C[C@H](F)C3)nc2c(F)c(-c3ccc(F)c4sc(N)c(C#N)c34)c(C(F)(F)F)cc12)[C@H]1CCN(C(=O)[C@H]2CCO2)C1 (atropisomer, axis not shown) [Compound 577] | – | – | ≥ 7.00 | – | > 7.00 | – | – | ≥ 7.00 | > 7.00 | > 7.00 | > 7.00 | > 7.00 | > 7.00 | – | – | – | – | – |
| CC(=O)N1CC[C@H](N(c2nc(OC[C@@]34CCCN3C[C@H](F)C4)nc3c(F)c(-c4ccc(F)c5sc(N)c(C#N)c45)c(C(F)(F)F)cc23)C2CC2)C1 (atropisomer, axis not shown) [Compound 608] | – | – | 6.00 to 7.00 | – | > 7.00 | – | – | 5.00 to 6.00 | > 7.00 | 6.00 to 7.00 | 6.00 to 7.00 | > 7.00 | 6.00 to 7.00 | – | – | – | – | – |
| N#Cc1c(N)sc2c(F)ccc(-c3c(C(F)(F)F)cc4c(N5CCCC[C@@H](O)C5)nc(OC[C@@]56CCCN5C[C@H](F)C6)nc4c3F)c12 [Compound 286] | > 7.00 | 6.00 to 7.00 | 6.00 to 7.00 | > 7.00 | > 7.00 | – | > 7.00 | 6.00 to 7.00 | – | – | – | – | – | > 7.00 | – | – | – | – |
| N#Cc1c(N)sc2c(F)ccc(-c3c(C(F)(F)F)cc4c(N5CC6CC(C5)O6)nc(OC[C@@]56CCCN5C[C@H](F)C6)nc4c3F)c12 (single isomer, unassigned) [Compound 275] | – | – | 6.00 to 7.00 | – | > 7.00 | – | – | 6.00 to 7.00 | – | – | – | – | – | > 7.00 | 6.00 to 7.00 | 6.00 to 7.00 | 6.00 to 7.00 | 6.00 to 7.00 |
| CCN(c1nc(OC[C@@]23CCCN2C[C@H](F)C3)nc2c(F)c(-c3ccc(F)c4sc(N)c(C#N)c34)c(C(F)(F)F)cc12)[C@H]1CC(=O)N(C2CC2)C1 (atropisomer, axis not shown) [Compound 615] | – | – | ≥ 7.00 | – | > 7.00 | – | – | 6.00 to 7.00 | > 7.00 | > 7.00 | > 7.00 | > 7.00 | > 7.00 | – | – | – | – | – |
| CC(=O)N1CC[C@H](N(CCF)c2nc(OC[C@@]34CCCN3C[C@H](F)C4)nc3c(F)c(-c4ccc(F)c5sc(N)c(C#N)c45)c(C(F)(F)F)cc23)C1 (atropisomer, axis not shown) [Compound 622] | – | – | 6.00 to 7.00 | – | > 7.00 | – | – | 6.00 to 7.00 | > 7.00 | > 7.00 | > 7.00 | > 7.00 | > 7.00 | – | – | – | – | – |
| CCN1C[C@@H](N(C)c2nc(OC[C@@]34CCCN3C[C@H](F)C4)nc3c(F)c(-c4ccc(F)c5sc(N)c(C#N)c45)c(C(F)(F)F)cc23)CC1=O (atropisomer, axis not shown) [Compound 636] | – | – | 6.00 to 7.00 | – | > 7.00 | – | – | 6.00 to 7.00 | > 7.00 | > 7.00 | > 7.00 | > 7.00 | > 7.00 | – | – | – | – | – |
| N#Cc1c(N)sc2c(F)ccc(-c3c(C(F)(F)F)cc4c(N(C5CC5)[C@H]5CCS(=O)(=O)C5)nc(OC[C@@]56CCCN5C[C@H](F)C6)nc4c3F)c12 [Compound 702] | – | – | < 5.00 | – | 6.00 to 7.00 | – | – | < 5.00 | 5.00 to 6.00 | 5.00 to 6.00 | 5.00 to 6.00 | 6.00 to 7.00 | 5.00 to 6.00 | – | – | – | – | – |
| CCN(c1nc(OC[C@@]23CCCN2C[C@H](F)C3)nc2c(F)c(-c3ccc(F)c4sc(N)c(C#N)c34)c(C(F)(F)F)cc12)[C@H]1CCN(C(=O)C2C[C@@H]2F)C1 (stereo partly shown) [Compound 692] | – | – | ≥ 7.00 | – | > 7.00 | – | – | ≥ 7.00 | > 7.00 | > 7.00 | > 7.00 | > 7.00 | > 7.00 | – | – | – | – | – |
| N#Cc1c(N)sc2c(F)ccc(-c3c(C(F)(F)F)cc4c(N5CCOCC5)nc(OC[C@@]56CCCN5C[C@H](F)C6)nc4c3F)c12 (single isomer, unassigned) [Compound 198] | – | – | 6.00 to 7.00 | – | > 7.00 | > 7.00 | – | 6.00 to 7.00 | – | – | – | – | – | – | 6.00 to 7.00 | 6.00 to 7.00 | 6.00 to 7.00 | 6.00 to 7.00 |
| CCN(c1nc(OC[C@@]23CCCN2C[C@H](F)C3)nc2c(F)c(-c3ccc(F)c4sc(N)c(C#N)c34)c(C(F)(F)F)cc12)[C@H]1CCN(C(=O)CC(F)F)C1 (atropisomer, axis not shown) [Compound 611] | – | – | ≥ 7.00 | – | > 7.00 | – | – | 6.00 to 7.00 | > 7.00 | > 7.00 | > 7.00 | > 7.00 | > 7.00 | – | – | – | – | – |
| CCN(c1nc(OC[C@@]23CCCN2C[C@H](F)C3)nc2c(F)c(-c3ccc(F)c4sc(N)c(C#N)c34)c(C(F)(F)F)cc12)[C@H]1CCN(C(=O)N(C)C)[C@@H]1C (atropisomer, axis not shown) [Compound 749] | – | – | ≥ 7.00 | – | > 7.00 | – | – | ≥ 7.00 | > 7.00 | > 7.00 | > 7.00 | > 7.00 | > 7.00 | – | – | – | – | – |
| CCN(c1nc(OC[C@@]23CCCN2C[C@H](F)C3)nc2c(F)c(-c3ccc(F)c4sc(N)c(C#N)c34)c(C(F)(F)F)cc12)[C@H]1C[C@@H]2CN(C)C(=O)N2C1 (atropisomer, axis not shown) [Compound 605] | – | – | 6.00 to 7.00 | – | > 7.00 | – | – | 6.00 to 7.00 | > 7.00 | 6.00 to 7.00 | > 7.00 | > 7.00 | > 7.00 | – | – | – | – | – |
